Assay results: PubChem BioAssay AID328 (DTP/NCI, 2004)
Several values for one entry are separate records, joined by “and”; a condition that tells them apart may be missing. Identical values can stand only once. Inconclusive results and toxic doses are left out. Rule for the calls: active = survival T/C of 150% or more; inactive = T/C below 125% in these data.

Tested on: BDF1 mice, P388 leukemia ip, median survival T/C
Assay: NCI In Vivo Anticancer Drug Screen. Data for tumor model P388 Leukemia (intraperitoneal) in B6D2F1 (BDF1) mice
Settings: endpoint: median survival time, higher = longer survival
How it was run: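 Transplantable tumour in mice; compound vs vehicle dosing; survival scored; ratio of treated to control reported.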

[1] = dose: 12.5 mg/kg/injection, schedule: Q01DX009 (ip), vehicle: saline with Tween-80
[2] = dose: 25.0 mg/kg/injection, schedule: Q01DX009 (ip), vehicle: saline with Tween-80
[3] = dose: 50.0 mg/kg/injection, schedule: Q01DX009 (ip), vehicle: saline with Tween-80
[4] = dose: 50.0 mg/kg/injection, schedule: Q04DX003 (ip), vehicle: saline with Tween-80
[5] = dose: 100.0 mg/kg/injection, schedule: Q01DX009 (ip), vehicle: saline with Tween-80
[6] = dose: 100.0 mg/kg/injection, schedule: Q04DX003 (ip), vehicle: saline with Tween-80
[7] = dose: 200.0 mg/kg/injection, schedule: Q04DX003 (ip), vehicle: saline with Tween-80
[8] = dose: 200.0 mg/kg/injection, schedule: Q01DX009 (ip), vehicle: saline with Tween-80
[9] = dose: 400.0 mg/kg/injection, schedule: Q01DX009 (ip), vehicle: saline with Tween-80
[10] = dose: 400.0 mg/kg/injection, schedule: Q04DX003 (ip), vehicle: saline with Tween-80
[11] = dose: 6.25 mg/kg/injection, schedule: Q01DX009 (ip), vehicle: saline
[12] = dose: 12.5 mg/kg/injection, schedule: Q01DX009 (ip), vehicle: saline
[13] = dose: 25.0 mg/kg/injection, schedule: Q01DX009 (ip), vehicle: Klucel (hydroxypropylcellulose) (HPC)
[14] = dose: 50.0 mg/kg/injection, schedule: Q01DX009 (ip), vehicle: Klucel (hydroxypropylcellulose) (HPC)
[15] = dose: 200.0 mg/kg/injection, schedule: Q01DX001 (ip), vehicle: saline with Tween-80
[16] = dose: 400.0 mg/kg/injection, schedule: Q01DX001 (ip), vehicle: saline with Tween-80

Measured: T/C

CCOCc1nc2nc(Cl)c(Cl)nc2[nH]1
inactive: [1] 89 % of control and 99 % of control | [2] 89 % of control and 100 % of control | dose: 25.0 mg/kg/injection, schedule: Q04DX003 (ip), vehicle: saline with Tween-80 100 % of control | [3] 86 % of control and 104 % of control and 105 % of control | [4] 98 % of control | [5] 100 % of control | [6] 98 % of control | [7] 89 % of control and 104 % of control

Cc1cc(=O)[nH]c(N(CCO)CCO)n1
inactive: [5] 100 % of control | [6] 100 % of control | [8] 96 % of control | [7] 95 % of control | [9] 88 % of control | [10] 90 % of control

CCCCCCCCCC(O)CCCCCC (stereo unspecified)
inactive: dose: 100.0 mg/kg/injection, schedule: Q01DX009 (ip), vehicle: other 105 % of control | dose: 100.0 mg/kg/injection, schedule: Q04DX003 (ip), vehicle: other 95 % of control | dose: 200.0 mg/kg/injection, schedule: Q04DX003 (ip), vehicle: other 118 % of control

O=[N+]([O-])O.[Ag]
inactive: dose: 10.0 mg/kg/injection, schedule: Q01DX009 (ip), vehicle: saline with Tween-80 96 % of control | dose: 40.0 mg/kg/injection, schedule: Q01DX009 (ip), vehicle: saline with Tween-80 92 % of control | dose: 40.0 mg/kg/injection, schedule: Q04DX003 (ip), vehicle: saline with Tween-80 90 % of control

CCC(=O)/C=C/c1ccccc1
inactive: [3] 93 % of control | [5] 109 % of control | [8] 118 % of control

CC(=O)Cc1ccc(C(=O)C(C)Cc2ccc(C(C)=O)cc2)cc1 (stereo unspecified)
inactive: [6] 100 % of control | [7] 90 % of control | [10] 90 % of control

CC(=O)[O][Hg][c]1c(N)c(C)cc(C)c1F
inactive: dose: 0.78 mg/kg/injection, schedule: Q01DX009 (ip), vehicle: saline 93 % of control | dose: 1.56 mg/kg/injection, schedule: Q01DX009 (ip), vehicle: saline 95 % of control | dose: 3.12 mg/kg/injection, schedule: Q01DX009 (ip), vehicle: saline 93 % of control | [11] 95 % of control | [12] 95 % of control

BrC1C2C=CCC1CC2 (stereo unspecified)
inactive: dose: 100.0 mg/kg/injection, schedule: Q01DX009 (ip), vehicle: saline 100 % of control | dose: 100.0 mg/kg/injection, schedule: Q04DX003 (ip), vehicle: saline 91 % of control | dose: 200.0 mg/kg/injection, schedule: Q01DX009 (ip), vehicle: saline 90 % of control | dose: 200.0 mg/kg/injection, schedule: Q04DX003 (ip), vehicle: saline 91 % of control | dose: 400.0 mg/kg/injection, schedule: Q01DX009 (ip), vehicle: saline 104 % of control | dose: 400.0 mg/kg/injection, schedule: Q04DX003 (ip), vehicle: saline 95 % of control

O.O.O=c1[nH]cc(CO)c(=O)[nH]1.[NH2-].[NH2-].[Pt+2]
inactive: dose: 3.12 mg/kg/injection, schedule: Q01DX009 (ip), vehicle: Klucel (hydroxypropylcellulose) (HPC) 99 % of control | dose: 6.25 mg/kg/injection, schedule: Q01DX009 (ip), vehicle: Klucel (hydroxypropylcellulose) (HPC) 88 % of control | [14] 90 % of control
active: dose: 12.5 mg/kg/injection, schedule: Q01DX009 (ip), vehicle: Klucel (hydroxypropylcellulose) (HPC) 209 % of control | [13] 248 % of control and 211 % of control

COc1ccc(C(=O)CC(C(=O)O)c2ccc3c(c2)OCO3)cc1OC (stereo unspecified)
inactive: [5] 109 % of control | [8] 100 % of control | [9] 104 % of control

Cc1nc(C(N)=O)c(=O)[nH]c1C
inactive: dose: 6.25 mg/kg/injection, schedule: Q04DX003 (ip), vehicle: saline 104 % of control | dose: 12.5 mg/kg/injection, schedule: Q04DX003 (ip), vehicle: saline 109 % of control | dose: 25.0 mg/kg/injection, schedule: Q04DX003 (ip), vehicle: saline 100 % of control | dose: 50.0 mg/kg/injection, schedule: Q04DX003 (ip), vehicle: saline 88 % of control | dose: 100.0 mg/kg/injection, schedule: Q04DX003 (ip), vehicle: saline sonified 104 % of control | dose: 200.0 mg/kg/injection, schedule: Q04DX003 (ip), vehicle: saline sonified 104 % of control

O=CNC(Cc1cccc(N(CCCl)CCCl)c1)C(=O)O (stereo unspecified)
active: [4] 177 % of control | [6] 272 % of control
inactive: dose: 11.0 mg/kg/injection, schedule: Q04DX003 (ip), vehicle: saline sonified 94 % of control | dose: 16.5 mg/kg/injection, schedule: Q04DX003 (ip), vehicle: saline sonified 100 % of control | dose: 25.0 mg/kg/injection, schedule: Q04DX003 (ip), vehicle: saline sonified 122 % of control

C=CC1CC[N-]CC1.C=CC1CC[N-]CC1.C=CC1CC[N-]CC1.[Cl][Cr]([Cl])[Cl]
inactive: [1] 100 % of control | [2] 109 % of control | [3] 104 % of control

Cc1cc(-c2ccccc2)nnc1NCCN1CCOCC1
inactive: [11] 106 % of control | [12] 90 % of control | dose: 25.0 mg/kg/injection, schedule: Q01DX009 (ip), vehicle: saline 88 % of control

Cc1ccc(C2NC(=O)c3ccccc3N2)s1 (stereo unspecified)
inactive: [14] 107 % of control and 113 % of control

CC1=NNB(O)c2ccsc21
inactive: [1] 107 % of control | [2] 90 % of control | [3] 96 % of control

COc1ccc(N=O)c(O)c1
inactive: [13] 100 % of control and 109 % of control | dose: 25.0 mg/kg/injection, schedule: Q01DX010 (ip), vehicle: carboxymethylcellulose (CMC) 110 % of control | dose: 25.0 mg/kg/injection, schedule: Q04DX003 (ip), vehicle: Klucel (hydroxypropylcellulose) (HPC) 115 % of control | [14] 100 % of control and 109 % of control | dose: 50.0 mg/kg/injection, schedule: Q01DX010 (ip), vehicle: carboxymethylcellulose (CMC) 115 % of control | dose: 50.0 mg/kg/injection, schedule: Q04DX003 (ip), vehicle: Klucel (hydroxypropylcellulose) (HPC) 110 % of control | dose: 100.0 mg/kg/injection, schedule: Q01DX009 (ip), vehicle: Klucel (hydroxypropylcellulose) (HPC) 113 % of control and 118 % of control | dose: 100.0 mg/kg/injection, schedule: Q04DX003 (ip), vehicle: Klucel (hydroxypropylcellulose) (HPC) 110 % of control

CNC(=O)OCc1c(COC(=O)NC)c(-c2ccc(F)cc2)n2c1CCC2
inactive: dose: 1.56 mg/kg/injection, schedule: Q01DX009 (ip), vehicle: Klucel (hydroxypropylcellulose) (HPC) 122 % of control

CS(=O)(=O)/C=C(\c1ccccc1)c1cccs1
inactive: [3] 114 % of control | [5] 100 % of control | [8] 96 % of control

Cc1n[nH]c2ccc([N+](=O)[O-])cc2c1=O
inactive: [8] 87 % of control

CC(=O)Oc1c(Cl)c(Cl)c(Cl)c(Cl)c1Cl
inactive: dose: 100.0 mg/kg/injection, schedule: Q01DX001 (ip), vehicle: saline with Tween-80 115 % of control | [15] 95 % of control | [16] 100 % of control

C/C=C1\CN(C(=O)C(NC(=O)C(N)C(O)C(O)COC(N)=O)C2OC(n3cc(C(=O)O)c(=O)[nH]c3=O)C(O)C2O)C1C(=O)O (stereo unspecified) (tested in a mixture with another compound)
inactive: dose: 100.0 mg/kg/injection, schedule: Q01DX008 (ip), vehicle: saline 90 % of control | dose: 200.0 mg/kg/injection, schedule: Q01DX008 (ip), vehicle: saline 100 % of control

ClCCN(CCCN(CCCl)c1ccccc1)c1ccccc1
active: [15] 156 % of control | dose: 400.0 mg/kg/injection, schedule: Q01DX001 (ip), vehicle: saline + alcohol 151 % of control | [16] 166 % of control | dose: 800.0 mg/kg/injection, schedule: Q01DX001 (ip), vehicle: saline with Tween-80 205 % of control
inactive: dose: 100.0 mg/kg/injection, schedule: Q01DX001 (ip), vehicle: saline + alcohol 118 % of control

CC(=O)Nc1c(Cl)c(Cl)c2c(c1Cl)C(=O)c1cc(Cl)ccc1-2
inactive: [5] 90 % of control | [6] 90 % of control | [7] 90 % of control | [10] 95 % of control

COC(=O)c1ccccc1NCCCC(=O)O
inactive: [6] 91 % of control | [7] 108 % of control | [10] 100 % of control
